In data set [1] the target is T1, Bombesin receptor subtype-3 (Homo sapiens, UniProt P32247).
T1 sequence (P32247 whole entry): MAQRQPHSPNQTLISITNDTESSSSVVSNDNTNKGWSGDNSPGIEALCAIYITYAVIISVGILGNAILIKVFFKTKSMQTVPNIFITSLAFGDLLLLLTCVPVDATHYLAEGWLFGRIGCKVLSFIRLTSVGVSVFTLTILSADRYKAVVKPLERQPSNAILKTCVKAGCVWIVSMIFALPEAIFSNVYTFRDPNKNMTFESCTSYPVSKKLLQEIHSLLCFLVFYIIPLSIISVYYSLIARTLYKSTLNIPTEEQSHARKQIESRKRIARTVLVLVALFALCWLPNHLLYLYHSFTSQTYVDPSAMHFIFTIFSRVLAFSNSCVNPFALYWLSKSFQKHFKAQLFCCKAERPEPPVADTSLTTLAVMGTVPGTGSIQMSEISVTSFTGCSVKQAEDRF
The data set can be described thus: biochemical. Format: cell-based, CHO.
Description: Displacement of [125I]D-Tyr6-betaAla11-Phe13-Nle14-bombesin from human BRS-3 expressed in NFAT-CHO cells after 2 hrs by scintillation counting

The target of data set [2] is T2, Bombesin receptor subtype-3 (Mus musculus, UniProt O54798).
T2 sequence (O54798 whole entry): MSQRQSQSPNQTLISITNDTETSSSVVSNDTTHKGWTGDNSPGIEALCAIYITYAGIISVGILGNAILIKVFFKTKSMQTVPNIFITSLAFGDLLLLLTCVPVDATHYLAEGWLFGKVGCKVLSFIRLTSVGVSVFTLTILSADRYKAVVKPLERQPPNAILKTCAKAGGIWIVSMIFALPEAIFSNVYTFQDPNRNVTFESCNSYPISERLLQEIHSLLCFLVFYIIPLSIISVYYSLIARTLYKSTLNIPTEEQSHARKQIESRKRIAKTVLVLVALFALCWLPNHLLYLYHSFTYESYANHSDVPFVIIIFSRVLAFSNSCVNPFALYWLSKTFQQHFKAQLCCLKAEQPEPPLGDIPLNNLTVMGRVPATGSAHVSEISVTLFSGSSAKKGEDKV
Briefly: Agonist activity at mouse BRS-3 expressed in HEK293 cells coexpressing AEQ over 10 mins by aequorin bioluminescence assay. Format: functional, cell-based.

Data set [3] has as its target T1, Bombesin receptor subtype-3. Briefly: Agonist activity at human BRS-3 expressed in HEK293 cells coexpressing AEQ over 10 mins by aequorin bioluminescence assay relative to D-Tyr6-betaAla11-Phe13-Nle14-bombesin. In kind it is functional, cell-based.
A short description of data set [4]: Ratio of drug level in rat brain to plasma at 1 mg/kg, iv after 1 hr. Format: ADME, organism-based. Further details: dose 1 mg/kg, route intravenous.
A short description of data set [5]: Drug level in rat brain at 1 mg/kg, iv after 1 hr. Format: ADME, organism-based. Further details: dose 1 mg/kg, route intravenous. The note with it: read-out: Drug uptake.
Data set [6] has as its target T1, Bombesin receptor subtype-3. Briefly: Agonist activity at human BRS-3 expressed in HEK293 cells coexpressing AEQ over 10 mins by aequorin bioluminescence assay. In kind it is functional, cell-based.
In data set [7] the target is T2, Bombesin receptor subtype-3. Briefly: Agonist activity at mouse BRS-3 expressed in HEK293 cells coexpressing AEQ over 10 mins by aequorin bioluminescence assay relative to D-Tyr6-betaAla11-Phe13-Nle14-bombesin. In kind it is functional, cell-based.
Data set [8] can be described thus: Drug level in rat plasma at 1 mg/kg, iv after 1 hr. Format: ADME, organism-based. Further details: dose 1 mg/kg, route intravenous.

SMILES strings stand for the structures.

What is called IC50 is the concentration at which inhibition is half-maximal. Low values mean greater potency in that assay, high ones weaker potency in that assay. The EC50 is the concentration that produces a half-maximal response. Higher therefore signals weaker potency. By Emax is commonly meant the maximal effect, on the per cent scale that the assay sets. By Kp is commonly meant the ratio of the level in a tissue or fluid to that in plasma or blood. `CCC(C)(C)Cc1cnc(CCc2ccc(-c3cnsc3)cc2)[nH]1` came in with an IC50 in data set [1] of 10 nM. The EC50 in data set [2] amounted to 6.9 nM; in data set [6], 44 nM. For the same compound, the values for the Emax in data set [3] and in data set [7] were 100% and 119%, respectively. Besides, in data set [4], the Kp at 1 h amounted to 0.42. Moreover, the concentration at 1 h in data set [5] was determined as 230 nM; in data set [8], 540 nM.
Take `CCC(C)(C)Cc1cnc(CCc2ccc(-c3csnn3)cc2)[nH]1`: the IC50 in data set [1] was 45 nM. In addition, the EC50 came out at 11 nM in data set [2] and 538 nM in data set [6]. Besides, the maximal effect (Emax) worked out at 104% in data set [3] and 109% in data set [7].
For `CCC(C)(C)Cc1c[nH]c(CCc2ccc(-c3cnccn3)cc2)n1` the same measures were 51 nM, 11 nM, 431 nM, 100% and 107%.
`CCC(C)(C)Cc1c[nH]c(CCc2ccc(-n3cccn3)cc2)n1`: the EC50 in data set [2] came out at 9 nM; in data set [6], 135 nM. Moreover, the Emax in data set [3] worked out at 106%; in data set [7], 113%. Besides, the Kp at 1 h in data set [4] was determined as 0.67. Further, the concentration at 1 h was 20 nM in data set [5] and 30 nM in data set [8].
The compound `CCC(C)(C)Cc1cnc(CCc2ccc(-n3cncn3)cc2)[nH]1` came in with an IC50 in data set [1] of 340 nM. In addition, the figures for the EC50 in data set [2] and in data set [6] were 12 nM and 570 nM, respectively. Besides, the Emax in data set [3] is 89%; in data set [7], 121%. Moreover, the Kp at 1 h in data set [4] was 0.4. The concentration at 1 h was found to be 80 nM in data set [5] and 200 nM in data set [8].
In turn, `CCC(C)(C)Cc1cnc(CCc2ccc(-n3ccnn3)cc2)[nH]1` registered an IC50 in data set [1] of 390 nM. For the same compound, the EC50 was 57 nM in data set [2] and 641 nM in data set [6]. The values for the Emax in data set [3] and in data set [7] were 93% and 111%, respectively.
As for `CCC(C)(C)Cc1c[nH]c(CCc2ccc(-c3ccccc3C(=O)O)cc2)n1`, in data set [1], the IC50 worked out at 11 nM. In addition, the Emax in data set [3] was 101%; in data set [7], 94%.
`CCC(C)(C)Cc1cnc(CCc2ccc(-c3cccnc3C(=O)O)cc2)[nH]1`: the 50% inhibitory concentration (IC50) in data set [1] was determined as 560 nM. The values for the EC50 in data set [2] and in data set [6] were 14 nM and 1260 nM, respectively. The figures for the Emax in data set [3] and in data set [7] were 95% and 97%, respectively.
The matching figures for `CCC(C)(C)Cc1c[nH]c(CCc2ccc(-c3cccc(C(=O)O)n3)cc2)n1`: 2820 nM, 305 nM, 5230 nM, 15% and 90%.
`c1ccc(-c2ccc(CCc3nc(CC4CCCC4)c[nH]3)cc2)nc1`: the half-maximal inhibitory concentration (IC50) in data set [1] is 177 nM. Besides, the results for the EC50 in data set [2] and in data set [6] were 22 nM and 425 nM, respectively. The Emax came to 98% in data set [3] and 103% in data set [7]. In data set [4], the partition ratio (Kp) at 1 h was found to be 0.77. In addition, the concentration at 1 h was found to be 30 nM in data set [5] and 39 nM in data set [8].
Take `CCC(C)(C)Cc1cnc(CCc2ccc(-c3cccnc3)cc2)[nH]1`: the IC50 in data set [1] is 7.5 nM. Also, the EC50 in data set [2] came to 4.3 nM; in data set [6] it was 131 nM. The Emax is 98% in data set [3] and 97% in data set [7].
The matching figures for `CCC(C)(C)Cc1c[nH]c(CCc2ccc(-n3ncnn3)cc2)n1`: 205 nM, 25 nM, 422 nM, 89% and 99%.
For `CCC(C)(C)Cc1cnc(CCc2ccc(N3CCCCC3)cc2)[nH]1` the same measures were 28 nM, 28 nM, 171 nM, 108% and 133%.
For `CCC(C)(C)Cc1cnc(CCc2ccc(-c3ccncc3)cc2)[nH]1` the same measures were 101 nM, 15 nM, 305 nM, 95% and 103%.
With `CCC(C)(C)Cc1c[nH]c(CCc2ccc(-c3cccc(C)n3)cc2)n1`, the EC50 stood at 19 nM in data set [2] and 105 nM in data set [6]. Besides, the Emax in data set [3] amounted to 102%; in data set [7], 106%.
On to `CCC(C)(C)Cc1c[nH]c(CCc2ccc(-c3cccc(N)n3)cc2)n1`, for which, in data set [1], the IC50 stood at 7.3 nM. Besides, the EC50 in data set [2] was 3.9 nM; in data set [6], 37 nM. The maximum response (Emax) in data set [3] came out at 97%; in data set [7], 119%.
The matching figures for `O=C(O)c1cc(F)c(F)cc1-c1ccc(CCc2nc(CC3CCCCC3)c[nH]2)cc1`: 36 nM, 4.7 nM, 63 nM, 103% and 96%.
Consider `CCC(C)(C)Cc1c[nH]c(CCc2ccc(-c3cccc(O)n3)cc2)n1`, for which the IC50 in data set [1] stood at 51 nM. Further, the values for the EC50 in data set [2] and in data set [6] were 11 nM and 169 nM, respectively. For the same compound, the Emax in data set [3] amounted to 100%; in data set [7], 91%.
The matching figures for `CCC(C)(C)Cc1cnc(CCc2ccc(-c3cccc(C#N)n3)cc2)[nH]1`: 140 nM, 26 nM, 193 nM, 95% and 115%.
The matching figures for `CCC(C)(C)Cc1cnc(CCc2ccc(-c3ccc(F)cn3)cc2)[nH]1`: 19 nM, 16 nM, 66 nM, 97% and 105%.
The matching figures for `CCC(C)(C)Cc1c[nH]c(CCc2ccc(-c3ccns3)cc2)n1`: 11 nM, 3.1 nM, 63 nM, 102% and 103%.

(Values after ChEMBL document CHEMBL1156946, “Synthesis and SAR of derivatives based on 2-biarylethylimidazole as bombesin receptor subtype-3 (BRS-3) agonists for the treatment of obesity” (Bioorg Med Chem Lett, 2010).)
